Calls of active or inactive are those of the source. The calls are words filed in the database; no cut-off is given here.
What was measured:
Mus musculus [1] = experiment: Antinociceptive activity in Balb/c albino Mus musculus (mouse) assessed as latency time on hot plate at 15 to 45 mg/kg up to 60 min by hot-plate method relative to control; type: functional, organism-based
Mus musculus [2] = experiment: Analgesic activity in Balb/c albino Mus musculus (mouse) assessed as protection against acetic acid-induced writhing at 15 to 45 mg/kg measured up to 20 min relative to control; type: functional; conditions: dose mg/kg 15-45
Mus musculus [3] = experiment: Antipyretic activity in Balb/c albino Mus musculus (mouse) assessed as Brewer's yeast-induced rectal temperature at 50 to 150 mg/kg, ip measured after 3 hr (reference value: 38.7 degC); type: functional; conditions: dose mg/kg 50-150; route intraperitoneal
Mus musculus [4] = experiment: Antipyretic activity in Balb/c albino Mus musculus (mouse) assessed as decrease in Brewer's yeast-induced rectal temperature at 50 to 150 mg/kg, ip measured up to 1.5 hr relative to control; type: functional, organism-based
Mus musculus [5] = experiment: Anti-inflammatory activity in Balb/c albino Mus musculus (mouse) assessed as inhibition of carrageenan-induced paw edema at 50 to 150 mg/kg at 5 hr relative to control; type: functional, organism-based
Mus musculus [6] = experiment: Anti-inflammatory activity in Balb/c albino Mus musculus (mouse) assessed as inhibition of carrageenan-induced paw edema at 50 to 150 mg/kg at 1 hr relative to control; type: functional, organism-based
Mus musculus [7] = experiment: Anti-inflammatory activity in Balb/c albino Mus musculus (mouse) assessed as inhibition of carrageenan-induced paw edema at 50 to 150 mg/kg up to 5 hr relative to control; type: functional, organism-based

Row | SMILES | Activity (Mus musculus [1]) | Activity (Mus musculus [2]) [%] | T (Mus musculus [3]) [°C] | inhibition (Mus musculus [4]) | inhibition (Mus musculus [5]) | inhibition (Mus musculus [6]) | inhibition (Mus musculus [7])
1 | Cl.Oc1ccccc1CN1CCCCC1 | inactive | 67.62 | 37.7 | Active | Active | Active | 
2 | Cl.NC(=O)C1CCN(Cc2ccccc2O)CC1 | inactive | 67.34 | 37.2 | Active | Active | Active | Active
3 | CC(=O)Oc1ccccc1C(=O)O [ASPIRIN] |  | 78.38 |  |  |  |  | 
